# Experimental data taken from ChEMBL document CHEMBL5465560, “Selectivity Literature for EUbOPEN Chemogenomic Library” (2024).
# Tests used:
# [1] = biological target: T1, Mitogen-activated protein kinase kinase kinase 7 (Homo sapiens) (UniProt O43318); test: Selectivity interaction (LanthaScreen Eu Kinase Binding Assay) EUB0001632a MAP3K7; settings: at 10 µM
# T1 sequence (whole entry): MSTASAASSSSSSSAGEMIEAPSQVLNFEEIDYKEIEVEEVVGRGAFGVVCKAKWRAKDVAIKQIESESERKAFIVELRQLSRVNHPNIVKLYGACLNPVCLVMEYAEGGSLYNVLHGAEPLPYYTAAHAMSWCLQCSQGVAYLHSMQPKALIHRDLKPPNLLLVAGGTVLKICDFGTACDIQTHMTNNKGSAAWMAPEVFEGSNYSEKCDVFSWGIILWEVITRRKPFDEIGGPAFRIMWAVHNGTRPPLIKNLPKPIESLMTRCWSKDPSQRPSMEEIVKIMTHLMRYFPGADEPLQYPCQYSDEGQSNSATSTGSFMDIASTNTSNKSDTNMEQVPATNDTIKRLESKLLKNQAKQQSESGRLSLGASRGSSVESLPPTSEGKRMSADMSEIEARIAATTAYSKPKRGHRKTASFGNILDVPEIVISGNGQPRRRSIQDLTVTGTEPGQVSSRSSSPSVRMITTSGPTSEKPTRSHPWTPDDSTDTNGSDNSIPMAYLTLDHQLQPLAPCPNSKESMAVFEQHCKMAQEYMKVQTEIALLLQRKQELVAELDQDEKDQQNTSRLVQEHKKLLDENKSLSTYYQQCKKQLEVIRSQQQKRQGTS
# [2] = biological target: Bromodomain-containing protein 2 (Homo sapiens) (UniProt P25440); test: Selectivity interaction (Human bromodomain panel (DSF assay)) EUB0000233b BRD2
# Sequence of Bromodomain-containing protein 2 (Homo sapiens) (P25440 whole entry, looked up): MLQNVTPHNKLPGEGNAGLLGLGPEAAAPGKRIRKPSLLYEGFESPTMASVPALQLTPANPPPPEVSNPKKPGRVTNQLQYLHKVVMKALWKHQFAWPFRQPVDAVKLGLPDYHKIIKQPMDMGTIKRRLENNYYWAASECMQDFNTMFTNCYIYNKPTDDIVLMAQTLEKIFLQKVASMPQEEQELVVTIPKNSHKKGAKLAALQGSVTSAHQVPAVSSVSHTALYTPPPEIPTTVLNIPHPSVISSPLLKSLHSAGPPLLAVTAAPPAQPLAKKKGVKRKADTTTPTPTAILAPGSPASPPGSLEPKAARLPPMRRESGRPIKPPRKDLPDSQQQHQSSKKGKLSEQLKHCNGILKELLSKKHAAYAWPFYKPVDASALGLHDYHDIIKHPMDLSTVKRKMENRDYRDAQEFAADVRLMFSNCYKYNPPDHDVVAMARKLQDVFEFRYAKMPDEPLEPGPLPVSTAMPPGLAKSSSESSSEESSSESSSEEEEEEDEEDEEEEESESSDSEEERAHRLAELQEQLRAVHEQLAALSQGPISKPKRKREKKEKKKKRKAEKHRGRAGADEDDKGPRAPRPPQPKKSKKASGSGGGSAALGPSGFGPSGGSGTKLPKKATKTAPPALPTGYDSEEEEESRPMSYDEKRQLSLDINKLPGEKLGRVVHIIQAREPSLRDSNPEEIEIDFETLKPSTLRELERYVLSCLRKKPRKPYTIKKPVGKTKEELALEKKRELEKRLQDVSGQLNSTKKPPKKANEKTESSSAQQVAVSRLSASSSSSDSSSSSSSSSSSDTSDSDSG
# [3] = biological target: Tyrosine-protein kinase Fyn (Homo sapiens) (UniProt P06241); settings: at 10 µM
# Sequence of Tyrosine-protein kinase Fyn (Homo sapiens) (P06241 2-537 limits assumed): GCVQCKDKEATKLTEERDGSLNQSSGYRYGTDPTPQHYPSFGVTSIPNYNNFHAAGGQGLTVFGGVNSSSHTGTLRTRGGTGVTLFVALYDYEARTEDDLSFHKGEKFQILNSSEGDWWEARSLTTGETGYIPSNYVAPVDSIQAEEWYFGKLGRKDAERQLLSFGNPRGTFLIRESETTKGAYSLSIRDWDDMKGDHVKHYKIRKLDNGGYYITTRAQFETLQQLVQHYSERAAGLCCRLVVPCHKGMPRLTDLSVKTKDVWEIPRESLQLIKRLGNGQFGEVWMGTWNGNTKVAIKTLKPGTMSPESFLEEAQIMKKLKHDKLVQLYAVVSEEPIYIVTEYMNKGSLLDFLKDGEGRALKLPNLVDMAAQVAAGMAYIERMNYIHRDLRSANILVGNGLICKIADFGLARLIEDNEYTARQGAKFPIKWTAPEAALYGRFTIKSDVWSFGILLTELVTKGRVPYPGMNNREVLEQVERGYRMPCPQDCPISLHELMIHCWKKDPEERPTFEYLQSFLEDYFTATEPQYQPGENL
# [4] = biological target: 5'-AMP-activated protein kinase catalytic subunit alpha-1 (Homo sapiens, UniProt Q13131); test: Selectivity interaction (Kinase screening (Upstate/Millipore)) EUB0000604a PRKAA1
# Sequence of 5'-AMP-activated protein kinase catalytic subunit alpha-1 (Q13131 whole entry, looked up): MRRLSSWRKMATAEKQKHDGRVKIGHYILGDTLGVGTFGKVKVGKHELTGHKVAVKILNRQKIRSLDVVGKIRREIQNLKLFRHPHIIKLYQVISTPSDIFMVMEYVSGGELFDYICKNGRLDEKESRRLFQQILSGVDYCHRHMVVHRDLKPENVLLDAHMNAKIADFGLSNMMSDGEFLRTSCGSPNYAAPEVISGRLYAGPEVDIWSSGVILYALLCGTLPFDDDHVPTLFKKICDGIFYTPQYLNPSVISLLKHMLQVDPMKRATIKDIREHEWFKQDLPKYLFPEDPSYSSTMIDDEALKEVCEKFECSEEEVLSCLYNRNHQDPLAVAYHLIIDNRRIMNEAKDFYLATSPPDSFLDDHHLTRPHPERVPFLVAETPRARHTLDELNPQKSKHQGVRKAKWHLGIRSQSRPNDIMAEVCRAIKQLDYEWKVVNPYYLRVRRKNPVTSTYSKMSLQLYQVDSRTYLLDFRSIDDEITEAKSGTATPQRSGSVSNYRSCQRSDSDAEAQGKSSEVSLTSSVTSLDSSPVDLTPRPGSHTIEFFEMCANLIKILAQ
# [5] = biological target: RAC-beta serine/threonine-protein kinase (Homo sapiens) (UniProt P31751); test: Selectivity interaction (Kinase screening (Nanosyn)) EUB0000604a AKT2
# Sequence of RAC-beta serine/threonine-protein kinase (Homo sapiens) (P31751 whole entry): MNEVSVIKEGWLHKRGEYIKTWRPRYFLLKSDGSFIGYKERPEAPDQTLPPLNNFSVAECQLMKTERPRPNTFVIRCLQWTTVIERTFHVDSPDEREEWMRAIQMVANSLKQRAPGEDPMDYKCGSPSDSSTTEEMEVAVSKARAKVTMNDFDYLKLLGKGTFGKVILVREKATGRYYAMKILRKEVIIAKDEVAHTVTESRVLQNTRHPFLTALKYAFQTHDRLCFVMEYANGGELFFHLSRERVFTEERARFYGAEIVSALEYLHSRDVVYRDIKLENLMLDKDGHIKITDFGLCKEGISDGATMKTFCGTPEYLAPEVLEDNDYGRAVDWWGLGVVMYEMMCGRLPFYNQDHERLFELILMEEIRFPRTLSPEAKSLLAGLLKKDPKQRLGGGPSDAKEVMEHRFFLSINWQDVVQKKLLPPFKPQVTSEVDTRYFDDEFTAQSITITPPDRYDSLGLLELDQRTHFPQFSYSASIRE
# [6] = biological target: T2, Tyrosine-protein kinase Lck (Homo sapiens, UniProt P06239); test: Selectivity interaction (Kinase screening (Upstate/Millipore)) EUB0000604a LCK
# T2 sequence (P06239 2-509 limits assumed): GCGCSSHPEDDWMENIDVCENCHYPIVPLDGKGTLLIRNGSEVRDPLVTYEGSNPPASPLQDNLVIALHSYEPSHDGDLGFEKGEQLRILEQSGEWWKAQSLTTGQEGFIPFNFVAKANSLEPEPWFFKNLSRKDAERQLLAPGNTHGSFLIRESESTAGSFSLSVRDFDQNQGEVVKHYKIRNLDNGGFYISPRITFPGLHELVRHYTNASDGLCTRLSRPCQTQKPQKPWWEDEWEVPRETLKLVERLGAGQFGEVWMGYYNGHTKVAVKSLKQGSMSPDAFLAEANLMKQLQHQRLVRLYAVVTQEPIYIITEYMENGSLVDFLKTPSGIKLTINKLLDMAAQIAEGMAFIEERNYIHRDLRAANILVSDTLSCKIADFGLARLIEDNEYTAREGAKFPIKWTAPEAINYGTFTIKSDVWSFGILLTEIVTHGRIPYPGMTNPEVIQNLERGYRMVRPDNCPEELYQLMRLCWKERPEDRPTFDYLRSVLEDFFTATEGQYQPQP
# [7] = biological target: T3, Mitogen-activated protein kinase kinase kinase 2 (Homo sapiens) (UniProt Q9Y2U5); test: Selectivity interaction (KinomeScan (DiscoverX)) EUB0000655a MAP3K2; settings: at 10 µM
# T3 sequence (whole entry): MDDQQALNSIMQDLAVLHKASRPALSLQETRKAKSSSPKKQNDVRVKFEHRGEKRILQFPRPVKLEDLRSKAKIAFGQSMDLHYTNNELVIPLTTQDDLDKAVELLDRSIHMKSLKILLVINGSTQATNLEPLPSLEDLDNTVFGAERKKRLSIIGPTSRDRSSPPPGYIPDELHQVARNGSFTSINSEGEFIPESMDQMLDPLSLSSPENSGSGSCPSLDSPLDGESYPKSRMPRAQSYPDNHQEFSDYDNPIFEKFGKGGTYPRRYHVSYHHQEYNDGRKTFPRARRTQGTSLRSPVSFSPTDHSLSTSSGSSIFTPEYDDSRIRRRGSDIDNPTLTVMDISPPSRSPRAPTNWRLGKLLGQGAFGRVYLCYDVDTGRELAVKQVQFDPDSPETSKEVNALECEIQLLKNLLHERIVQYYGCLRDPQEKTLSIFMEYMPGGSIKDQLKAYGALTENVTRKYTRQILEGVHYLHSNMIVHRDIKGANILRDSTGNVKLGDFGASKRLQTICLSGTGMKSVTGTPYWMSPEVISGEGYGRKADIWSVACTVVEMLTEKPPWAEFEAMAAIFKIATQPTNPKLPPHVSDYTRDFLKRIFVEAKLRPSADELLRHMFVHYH
# [8] = biological target: T4, Serine/threonine-protein kinase 4 (Homo sapiens) (UniProt Q13043); test: Selectivity interaction (KinomeScan (DiscoverX)) EUB0001079a STK4; settings: at 1 µM
# T4 sequence (whole entry): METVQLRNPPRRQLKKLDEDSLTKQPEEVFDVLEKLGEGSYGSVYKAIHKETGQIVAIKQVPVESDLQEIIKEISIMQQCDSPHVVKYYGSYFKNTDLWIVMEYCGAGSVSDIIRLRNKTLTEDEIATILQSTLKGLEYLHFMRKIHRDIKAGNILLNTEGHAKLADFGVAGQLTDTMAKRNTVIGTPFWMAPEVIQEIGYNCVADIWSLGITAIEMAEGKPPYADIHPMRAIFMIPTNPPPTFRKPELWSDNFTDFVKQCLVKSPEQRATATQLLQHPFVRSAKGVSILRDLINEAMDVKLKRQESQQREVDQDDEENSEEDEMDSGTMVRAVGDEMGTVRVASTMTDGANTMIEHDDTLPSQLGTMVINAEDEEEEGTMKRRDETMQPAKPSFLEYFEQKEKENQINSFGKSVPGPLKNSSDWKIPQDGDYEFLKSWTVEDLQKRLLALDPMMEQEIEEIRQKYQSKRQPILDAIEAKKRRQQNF
# [9] = biological target: Non-receptor tyrosine-protein kinase TYK2 (Homo sapiens, UniProt P29597); test: Selectivity interaction (KinomeScan (DiscoverX)) EUB0000092b TYK2; settings: at 10 µM
# [10] = biological target: Tyrosine-protein kinase JAK1 (Homo sapiens, UniProt P23458); test: Selectivity interaction (KinomeScan (DiscoverX)) EUB0000092b JAK1; settings: at 10 µM
# Sequence of Tyrosine-protein kinase JAK1 (P23458 whole entry): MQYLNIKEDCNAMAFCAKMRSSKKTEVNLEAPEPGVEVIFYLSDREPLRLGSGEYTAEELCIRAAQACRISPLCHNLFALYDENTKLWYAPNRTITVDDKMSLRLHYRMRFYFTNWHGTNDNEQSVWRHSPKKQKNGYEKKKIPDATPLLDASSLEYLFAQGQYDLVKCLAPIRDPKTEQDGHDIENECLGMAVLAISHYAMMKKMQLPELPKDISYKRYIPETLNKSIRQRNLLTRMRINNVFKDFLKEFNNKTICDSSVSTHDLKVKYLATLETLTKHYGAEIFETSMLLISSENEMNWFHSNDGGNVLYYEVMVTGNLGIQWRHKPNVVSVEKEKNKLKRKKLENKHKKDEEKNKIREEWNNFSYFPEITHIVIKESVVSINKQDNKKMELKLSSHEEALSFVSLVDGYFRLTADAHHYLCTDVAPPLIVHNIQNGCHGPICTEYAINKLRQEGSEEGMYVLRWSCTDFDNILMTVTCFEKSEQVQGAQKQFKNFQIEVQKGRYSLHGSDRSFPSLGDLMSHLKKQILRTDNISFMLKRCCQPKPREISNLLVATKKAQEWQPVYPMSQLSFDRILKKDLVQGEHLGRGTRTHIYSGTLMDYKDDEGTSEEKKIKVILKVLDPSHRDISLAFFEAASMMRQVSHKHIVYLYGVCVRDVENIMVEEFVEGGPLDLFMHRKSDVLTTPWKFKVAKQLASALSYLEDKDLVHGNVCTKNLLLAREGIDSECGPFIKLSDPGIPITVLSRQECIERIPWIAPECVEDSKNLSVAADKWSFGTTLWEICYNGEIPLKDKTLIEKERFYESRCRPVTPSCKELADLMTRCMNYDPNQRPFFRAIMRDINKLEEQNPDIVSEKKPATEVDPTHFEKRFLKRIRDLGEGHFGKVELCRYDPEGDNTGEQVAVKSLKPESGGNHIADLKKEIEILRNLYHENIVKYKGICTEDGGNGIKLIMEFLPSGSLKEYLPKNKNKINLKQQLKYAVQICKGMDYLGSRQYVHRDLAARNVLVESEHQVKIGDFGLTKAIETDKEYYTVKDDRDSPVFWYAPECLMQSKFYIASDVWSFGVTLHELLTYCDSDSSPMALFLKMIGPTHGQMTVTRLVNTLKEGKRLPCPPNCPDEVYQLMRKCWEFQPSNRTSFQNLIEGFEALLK
# [11] = biological target: T5, Megakaryocyte-associated tyrosine-protein kinase (Homo sapiens) (UniProt P42679); test: Selectivity interaction (KinomeScan (DiscoverX)) EUB0000092b MATK; settings: at 10 µM
# T5 sequence (whole entry): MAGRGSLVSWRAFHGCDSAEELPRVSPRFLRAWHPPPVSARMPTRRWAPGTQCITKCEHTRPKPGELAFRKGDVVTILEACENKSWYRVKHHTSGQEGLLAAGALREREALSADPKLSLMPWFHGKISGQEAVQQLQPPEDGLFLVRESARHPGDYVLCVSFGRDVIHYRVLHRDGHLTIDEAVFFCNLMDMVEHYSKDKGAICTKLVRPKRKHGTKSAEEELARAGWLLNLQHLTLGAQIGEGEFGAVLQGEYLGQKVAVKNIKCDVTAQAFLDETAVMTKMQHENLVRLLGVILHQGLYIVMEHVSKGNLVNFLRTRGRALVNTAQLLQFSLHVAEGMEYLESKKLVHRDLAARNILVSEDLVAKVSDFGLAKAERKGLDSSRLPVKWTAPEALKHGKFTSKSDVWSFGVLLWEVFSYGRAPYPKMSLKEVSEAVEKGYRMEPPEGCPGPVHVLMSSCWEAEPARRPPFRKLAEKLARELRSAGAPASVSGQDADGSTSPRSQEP
# [12] = biological target: T2, Tyrosine-protein kinase Lck; test: Selectivity interaction (KinomeScan (DiscoverX)) EUB0000092b LCK; settings: at 10 µM
# [13] = biological target: Serine/threonine-protein kinase Nek7 (Homo sapiens) (UniProt Q8TDX7); test: Selectivity interaction (KinomeScan (DiscoverX)) EUB0001619a NEK7; settings: at 1 µM
# Sequence of Serine/threonine-protein kinase Nek7 (Homo sapiens) (Q8TDX7 whole entry, looked up): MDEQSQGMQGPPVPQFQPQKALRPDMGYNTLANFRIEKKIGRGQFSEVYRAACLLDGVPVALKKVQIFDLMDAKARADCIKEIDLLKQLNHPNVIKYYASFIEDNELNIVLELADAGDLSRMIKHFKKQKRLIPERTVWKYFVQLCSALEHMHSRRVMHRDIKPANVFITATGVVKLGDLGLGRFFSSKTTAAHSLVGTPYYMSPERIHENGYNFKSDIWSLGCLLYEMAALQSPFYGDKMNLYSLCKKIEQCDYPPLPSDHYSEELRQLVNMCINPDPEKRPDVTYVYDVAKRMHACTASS
structure (smiles),measurement,setting,value
Cn1cc(-n2cnc3c(NCc4nc5cc(Cl)c(Cl)cc5[nH]4)nc(N4CCOCC4)nc32)cn1,% of inhibition,[1],-112%
CN(C)CCCOc1ccc(-c2cc(NCCCn3cccn3)nc(S(C)(=O)=O)n2)cc1,dTM,[2],< 2 K
CCN(CC)CCCCNc1ncc2cc(-c3cc(OC)cc(OC)c3)c(NC(=O)NC(C)(C)C)nc2n1,% of control,[3],100%
Cc1cnc(Nc2ccc(F)cc2Cl)nc1-c1c[nH]c(C(=O)N[C@H](CO)c2cccc(Cl)c2)c1,% of inhibition,[4],5%
same,% of inhibition,[5],0%
same,% of inhibition,[6],3%
CN(C)CCOc1ccc(-c2nc(-c3ccncc3)c(-c3ccc4c(c3)CC/C4=N\O)[nH]2)cc1,% of control,[7],69%
Nc1cnc(N2CCc3cc(S(=O)(=O)Nc4c(F)cc(Cl)cc4F)cc(N4CCCC4=O)c32)nc1 [TP-020n],% of control,[8],100%
CCC(=O)N1CCN(c2ccc(-n3c(=O)ccc4cnc5ccc(-c6cnc7ccccc7c6)cc5c43)cc2C(F)(F)F)CC1,% of control,[9],70%
same,% of control,[10],82%
same,% of control,[11],97%
same,% of control,[12],77%
N#Cc1cccc(-c2c[nH]c3ncnc(N4CCOCC4)c23)c1,% of control,[13],100%
